Experimental data as given in article PMC10272112 (Nature Communications, 2023).

Experiments:
Experiment in all cases: Chemoproteomic competition pulldown assay (co-competed CoREST partner)
Assay type in all cases: binding
HMG20A = test system: HMG20A
Procedure: (§1) To identify proteins directly bound by lipoic acid, we employed a chemoproteomic competition assay. Briefly, (R/S)-LA was immobilized on sepharose beads via an amidation reaction to form an affinity matrix (abbreviated as iL; Fig. 1a). This affinity matrix can be incubated with cell lysate to pull down potential LA or LM target proteins and identify these targets via bottom-up proteomics. In a competition assay, free LA or LM were incubated with lysate at different concentrations before pulling down and quantifying target proteins. […] (Fig. 1b, see “Methods” for details). […] The lysate buffer used in this assay contains 1 mM DTT to mimic the intracellular reductive milieu and to reduce lipoic acid and LM. […] Additional competition assays performed in lung adenocarcinoma cell A549 lysate also identified HDAC1, HDAC2, and HDAC6 as targets (Supplementary Fig. 1b). Amongst the three cell lines tested, HDACs were the only confidently identified targets across the 1500–3000 proteins quantified in these assays. […] We validated the results by analogous pulldown competition assays using two other affinity matrices prepared via the immobilization of either the HDAC inhibitor Quisinostat (iQ) and an analog of the class IIa HDAC inhibitor Bürli’s 31[14] (iC)[12]. We have previously shown that these affinity matrices specifically bind to the active sites of HDACs and have used them for HDACi selectivity profiling. Indeed, binding of (R/S)-LA and (R/S)-LM to HDAC1, HDAC2, HDAC3, HDAC6, and, to a lesser extent, HDAC8 was confirmed in these assays (Supplementary Fig. 1c, d). No binding to class IIa HDACs or the recently discovered common HDAC inhibitor off-target MBLAC2 was observed (Supplementary Fig. 1e)[12]. […] This observation might reflect electrostatic repulsion between the HDAC10 active site gate-keeper glutamic acid residues[15],[16] and the terminal carboxylic acid of LA.
(§2) To assess the degree of protein depletion from lysates by the affinity matrix, a second pulldown (PDPD) with fresh beads was performed using the unbound protein fraction from the vehicle control flow through. The beads were washed (1 × 1 mL of lysis buffer without inhibitors and only 0.4% Igepal, 2 × 2 mL of lysis buffer without inhibitors and only 0.2% Igepal), and captured proteins were denatured with 8 M urea buffer, alkylated with 55 mM chloroacetamide and digested with Trypsin according to standard procedures. The resulting peptides were desalted on a C18 filter plate (Sep-Pak® tC18 µElution Plate, Waters), vacuum dried, and stored at −20 °C until LC–MSMS measurement.
(§3) For the competition assays, relative binding was calculated based on the protein intensity ratio to the DMSO control for every single inhibitor concentration. EC50 values were derived from a four-parameter log-logistic regression with variable slope (constrain: bottom > 0). The obtained EC50 values were multiplied with a protein-dependent correction factor (cf), resulting in the apparent Kd value (Kd^app). The correction factor is determined by calculating the ratio of the protein intensity of two consecutive pulldowns of the vehicle control sample[13]. Targets of the inhibitors were annotated manually according to published procedures[12],[46],[47]. […] Additionally, the number of unique peptides and MSMS counts per condition were taken into account. Positive target binding across several independent experiments performed with different cell lysates further substantiated our confidence for a true positive drug-target binding event.

RCOR1 = test system: RCOR1
Procedure: as §1, §2, §3

GSE1 = conditions: iL
Procedure: as §1, §2, §3

[1] = iL, A549 lysate, log10 M -4.52288
[2] = iL, A549 lysate, log10 M -5.52288
[3] = iL, A549 lysate, log10 M -6.52288
[4] = iL, A549 lysate, log10 M -7.52288
[5] = iL, A549 lysate, log10 M -8.52288
[6] = iQ, SW620 lysate, log10 M -3.52288
[7] = iQ, SW620 lysate, log10 M -4.52288
[8] = iQ, SW620 lysate, log10 M -5.52288
[9] = iQ, SW620 lysate, log10 M -6.52288

O=C(O)CCCCC1CCSS1 (racemic) [(R/S)-LA, (R/S)-lipoic acid]
relative binding vs DMSO (HMG20A; iL, A549 lysate, log10 M -4): 0
relative binding vs DMSO (HMG20A; [1]): 0
relative binding vs DMSO (HMG20A; iL, A549 lysate, log10 M -5): 0
relative binding vs DMSO (HMG20A; [2]): 0.4211
relative binding vs DMSO (HMG20A; iL, A549 lysate, log10 M -6): 0.8299
relative binding vs DMSO (HMG20A; [3]): 0.9993
relative binding vs DMSO (HMG20A; [4]): 1.185
relative binding vs DMSO (HMG20A; iL, A549 lysate, log10 M -8): 1.321
relative binding vs DMSO (HMG20A; [5]): 1.259
relative binding vs DMSO (HMG20A; [6]): 0.2638
relative binding vs DMSO (HMG20A; iQ, SW620 lysate, log10 M -4): 0.07541
relative binding vs DMSO (HMG20A; [7]): 0.5511
relative binding vs DMSO (HMG20A; iQ, SW620 lysate, log10 M -5): 0.4652
relative binding vs DMSO (HMG20A; [8]): 0.8795
relative binding vs DMSO (HMG20A; iQ, SW620 lysate, log10 M -6): 0.793
relative binding vs DMSO (HMG20A; [9]): 1.133
relative binding vs DMSO (HMG20A; iQ, SW620 lysate, log10 M -7): 0.8444
relative binding vs DMSO (RCOR1; iL, A549 lysate, log10 M -4): 0.04582
relative binding vs DMSO (RCOR1; [1]): 0.0556
relative binding vs DMSO (RCOR1; iL, A549 lysate, log10 M -5): 0.1265
relative binding vs DMSO (RCOR1; [2]): 0.344
relative binding vs DMSO (RCOR1; iL, A549 lysate, log10 M -6): 0.6862
relative binding vs DMSO (RCOR1; [3]): 1.238
relative binding vs DMSO (RCOR1; [4]): 0.8815
relative binding vs DMSO (RCOR1; iL, A549 lysate, log10 M -8): 1.065
relative binding vs DMSO (RCOR1; [5]): 1.673
relative binding vs DMSO (RCOR1; iL, SW620 lysate, log10 M -3.52288): 0
relative binding vs DMSO (RCOR1; iL, SW620 lysate, log10 M -4): 0
relative binding vs DMSO (RCOR1; iL, SW620 lysate, log10 M -4.52288): 0.2767
relative binding vs DMSO (RCOR1; iL, SW620 lysate, log10 M -5): 0.2629
relative binding vs DMSO (RCOR1; iL, SW620 lysate, log10 M -5.52288): 0.4301
relative binding vs DMSO (RCOR1; iL, SW620 lysate, log10 M -6): 0.8481
relative binding vs DMSO (RCOR1; iL, SW620 lysate, log10 M -6.52288): 1.192
relative binding vs DMSO (RCOR1; iL, SW620 lysate, log10 M -7): 0.8783
relative binding vs DMSO (RCOR1; [6]): 0.1176
relative binding vs DMSO (RCOR1; iQ, SW620 lysate, log10 M -4): 0.1659
relative binding vs DMSO (RCOR1; [7]): 0.5043
relative binding vs DMSO (RCOR1; iQ, SW620 lysate, log10 M -5): 0.4267
relative binding vs DMSO (RCOR1; [8]): 0.9917
relative binding vs DMSO (RCOR1; iQ, SW620 lysate, log10 M -6): 1.001
relative binding vs DMSO (RCOR1; [9]): 0.9723
relative binding vs DMSO (RCOR1; iQ, SW620 lysate, log10 M -7): 0.6892
relative binding vs DMSO (GSE1; A549 lysate, log10 M -4): 0.002926
relative binding vs DMSO (GSE1; A549 lysate, log10 M -4.52288): 0.03688
relative binding vs DMSO (GSE1; A549 lysate, log10 M -5): 0.08918
relative binding vs DMSO (GSE1; A549 lysate, log10 M -5.52288): 0.4136
relative binding vs DMSO (GSE1; A549 lysate, log10 M -6): 0.8054
relative binding vs DMSO (GSE1; A549 lysate, log10 M -6.52288): 1.293
relative binding vs DMSO (GSE1; A549 lysate, log10 M -7.52288): 1.282
relative binding vs DMSO (GSE1; A549 lysate, log10 M -8): 1.353
relative binding vs DMSO (GSE1; A549 lysate, log10 M -8.52288): 1.278
relative binding vs DMSO (GSE1; SW620 lysate, log10 M -3.52288): 0
relative binding vs DMSO (GSE1; SW620 lysate, log10 M -4): 0
relative binding vs DMSO (GSE1; SW620 lysate, log10 M -4.52288): 0
